Experimental data reported in patent US20030216471A1, “Retinoid formulations for aerosolization and inhalation” (priority 2003, published 2003).
“Also recorded” adds a separate entry of the source. Where two headings read alike, the source gives them in different places. Marks after values point to notes of the source that are not given here.

Legend:
[1] = system: second aerodigestive tumors; conditions: oral, 1-2 mg/kg/day, previously treated head-and-neck cancer patients; cited from earlier work
RAR γ = experiment: Western blot of rat lung, inhaled 13-cis RA (experiment A), RAR γ; format: in vivo; conditions: for upregulation of lung tissue RAR (third named, γ): daily deposited dose 6.4 mg/kg/day
Experimental: (§1) The experimental groups were as follows (Table 4):1. Vehicle (10/9 mix of PEG 300 and Ethanol with 0.5% of ascorbic acid and 0.5% phosphatidyl choline) control, day 1: rats (19) inhaled vehicle for 2 hr for one day; 2. […] Vehicle control, day 28: rats (16) inhaled vehicle as for group 1 for a period of 28 days; 5.
(§2) Tissues were collected, frozen in dry ice and kept at −70° C. until used. 500 mg aliquots were diced in small pieces and homogenized in 300 μl of cold PBS, using the hand held homogenizer for 2˜3 minutes. Sample and washes were centrifuged at 5000×g for 20 minutes. The pellet was suspended in 400 μl of ice-cold Buffer A [2 μl 0.5M EDTA, 10 μl 100 mM EGTA, 50 μl 100MM PMSF, 10 μl 1M DTT, 10 ml (10 mM HEPES pH 7.9+10 mM KCl)], and left at ice temperature for 15 minutes. 25 μl of 10% solution of NP-40 was added and samples were mixed in a vortex vigorously for 10 seconds. Samples were centrifuged at 14,000×g for 1 minute at 4° C. and the pellet treated once more in this fashion (resuspended etc.). The supernatant was removed and 100 μl of ice-cold Buffer C [4 μl 0.5M EDTA, 20 μl 100 mM EGTA, 20 μl 100 mM PMSF, 2 μl 1M DTT, 2 ml (20 mM HEPES pH 7.9+0.4M NaCl)] was added. Pellets were resuspended by tapping gently on the bottom of the Eppendorf tubes. Samples were rocked vigorously in a bucket of ice on an orbital shaker for 30 minutes. Samples were centrifuged at 14,000×g for 5 minutes at 4° C.
(§3) Samples were prepared by adding one part of the Sample Buffer to one part of the sample and mixing well. Samples were heated at 95° C. for 5 minutes to induce denaturation. 5 μl of Rainbow Standard and 5 μl of Biotinylated Molecular Marker were added to parallel wells. 20 μg protein per sample was loaded in each lane. Electrophoresis was performed with voltage set at 125V for about 1˜1.5 hours. Gel transfer was executed at 25V for 2 hours. The membrane was stained in Ponceau S. for 5 minutes and destained with one wash of 5% acetic acid. The membrane was then washed in TBS solution until the staining disappeared. […]

RAR α [2] = experiment: RAR induction in lungs of A/J mice exposed to isotretinoin aerosol, RAR α; format: in vivo, mouse; conditions: inhaled mid dose, urethane-treated A/J mice
Experimental: (§4) Antibodies: Polyclonal antibodies to RARα, β and γ (Santa Cruz Biotechnology Inc., San Francisco, Calif.) were used with a BM Chemiluminescence Western Blotting Kit (Mouse/Rabbit) (Boehringer Mannheim Corporation, Indianapolis).
(§5) Experimental Design: Five lungs each from the urethane-treated vehicle, low dose, and mid dose animals were snap frozen in liquid nitrogen and stored at −70° C. for determination of RARs α, β and γ by Western Blot Analysis. […] The lungs were homogenized and the RARs were determined by standard Western Blotting (21, 22).
(§6) Samples: Lung tissue was collected, frozen on dry ice and kept at −70° C. until used. A 500 mg portion was diced in small pieces and homogenized in 300 μl of cold PBS using a hand held homogenizer for 2-3 min. Samples were centrifuged at 500 rpm for 5 min or until the supernatant was clear. The pellet was suspended in 400 μl of cold Buffer A [2 μl 0.5 M EDTA, 10 μl mM EGTA, 50 μl 100 mM PMSF, 10 μl 1M DTT, 10 ml (10 mM HEPES pH 7.9+10 mM KCl)], and left at ice temperature for 15 min. A 25 μl volume of 10% solution of NP−40 was added and the samples were mixed in a vortex vigorously for 10 sec. Samples were centrifuged at 14,000 rpm for 1 min at 4° C. and the pellet was treated once more in this fashion. […]

RAR β [3] = experiment: RAR induction in lungs of A/J mice exposed to isotretinoin aerosol, RAR β; format: in vivo, mouse; conditions: inhaled mid dose, urethane-treated A/J mice
Experimental: as §4, §5, §6

RAR β [4] = experiment: Western blot of rat lung, inhaled 13-cis RA (experiment A), RAR β; format: in vivo; conditions: for upregulation of lung tissue RAR (second named, β): daily deposited dose 6.4 mg/kg/day
Experimental: as §1, §2, §3

albumin = albumin (Homo sapiens, UniProt P02768); conditions: systemic administration, reported; cited from earlier work
RAR α [5] = experiment: Western blot of rat lung, inhaled 13-cis RA (experiment A), RAR α; format: in vivo; conditions: for upregulation of lung tissue RAR (first named, α): daily deposited dose 6.4 mg/kg/day
Experimental: as §1, §2, §3

liver RARs = experiment: Western blot of rat liver RARs after inhaled 13-cis RA; format: in vivo; conditions: not shown
Experimental: as §1
The experimental groups were as follows (Table 1): 1. Vehicle control: rats (3) inhaled vehicle for 240 minutes; 2.
as §2, with “Samples were rocked vigorously in a bucket of ice on an orbital shaker for 30 minutes. Samples were centrifuged at 14,000×g for 5 minutes at 4° C.” left out

[6] = daily deposited dose 1.9 mg/kg/day, day 28

albumin, sequence (P02768 25-609, species assumed): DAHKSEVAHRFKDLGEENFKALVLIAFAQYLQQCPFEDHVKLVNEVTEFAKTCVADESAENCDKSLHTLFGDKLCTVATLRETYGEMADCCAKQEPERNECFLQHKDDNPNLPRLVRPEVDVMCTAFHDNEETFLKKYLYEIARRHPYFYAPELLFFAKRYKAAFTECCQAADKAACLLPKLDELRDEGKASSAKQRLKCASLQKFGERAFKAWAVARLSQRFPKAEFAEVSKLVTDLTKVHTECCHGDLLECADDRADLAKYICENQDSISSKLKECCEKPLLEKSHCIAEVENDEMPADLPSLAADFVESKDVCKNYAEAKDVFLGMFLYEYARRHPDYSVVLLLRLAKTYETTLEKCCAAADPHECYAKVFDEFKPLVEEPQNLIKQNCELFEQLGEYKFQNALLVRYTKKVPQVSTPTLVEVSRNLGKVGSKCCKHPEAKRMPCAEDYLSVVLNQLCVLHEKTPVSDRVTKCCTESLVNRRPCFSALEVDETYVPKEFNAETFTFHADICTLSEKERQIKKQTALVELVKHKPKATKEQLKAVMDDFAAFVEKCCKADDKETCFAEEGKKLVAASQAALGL

In the case of CC1=C(/C=C/C(C)=C/C=C/C(C)=C\C(=O)O)C(C)(C)CCC1 [13-cis RA, 13-cis-Retinoic Acid], the “protection against second aerodigestive tumors” value [1] is given as “significantly protective”, the “induction of lung RAR (third named, γ)” value (RAR γ; [6]) is given as 8.1 fold and the “upregulation of lung tissue RAR (third named, γ)” value (RAR γ; day 1) is given as 9.7 fold. For the same molecule, the “upregulation of lung tissue RAR (third named, γ)” value (RAR γ; day 17) was 12.9 fold, the “upregulation of lung tissue RAR α over solvent (vehicle)” value (RAR α [2]) was 3.9 fold and the “Body Weights (Mean ± SD) (N)” value (BaP-Treated Mice, Day 102, High Dose) was 19.3 ± 1.6 (12)^a,e gms. The “Body Weights (Mean ± SD) (N)” value (BaP-Treated Mice, Day 102, Low Dose, vehicle control 22.5) was 21.8 ± 1.2 (21) gms, the “Body Weights (Mean ± SD) (N)” value (BaP-Treated Mice, Day 102, Mid Dose) was 20.1 ± 1.8 (20)^a,b gms and the “Body Weights (Mean ± SD) (N)” value (NNK-Treated Mice, Day 102, High Dose) was 17.5 ± 1.2 (14)^a,d gms. For the same molecule, the “Body Weights (Mean ± SD) (N)” value (NNK-Treated Mice, Day 102, Low Dose, vehicle control 22.7) was 22.1 ± 1.5 (21) gms, the “Body Weights (Mean ± SD) (N)” value (NNK-Treated Mice, Day 102, Mid Dose) was 20.3 ± 1.2 (20)^a,b gms and the “Body Weights (Mean ± SD) (N)” value (Urethane-Treated Mice, Day 60, High Dose) was 18.9 ± 1.7 (12)^a,c gms. The “Body Weights (Mean ± SD) (N)” value (Urethane-Treated Mice, Day 60, Low Dose, vehicle control 20.8) was 21.0 ± 1.2 (21) gms, the “Body Weights (Mean ± SD) (N)” value (Urethane-Treated Mice, Day 60, Mid Dose) was 20.7 ± 1.5 (21) gms and the toxicity (high dose, daily exposures during first two weeks, listed as isotretinoin) was “excessive toxicity to the snout and forelimbs; also recorded: severe toxicity”. For the same molecule, the mice that died (high dose, daily exposures for the first two weeks) was roughly 35%, the side effects (low dose) was “without any evidence of side effects” and the “mice that died before the end of exposure” value (mid dose) was 3%. For the same molecule, the “time until which dose was tolerated (mice then began losing weight)” value (mid dose) was roughly 12 wks, the “weights below those of vehicle controls at the end of exposure” value (mid dose, NNK- and BaP-treated mice) was 11% and the “upregulation of lung tissue RAR β over solvent (vehicle)” value (RAR β [3]) was 3.3 fold. For the same molecule, the “induction of lung RAR (second named, β)” value (RAR β [4]; [6]) was 8.0 fold, the “upregulation of lung tissue RAR (second named, β)” value (RAR β [4]; day 1) was 7.2 fold and the “upregulation of lung tissue RAR (second named, β)” value (RAR β [4]; day 17) was 10.0 fold. For the same molecule, the “present as albumin bound” value (albumin) was 99%, the “induction of lung RAR (first named, α)” value (RAR α [5]; [6]) was 4.7 fold and the “upregulation of lung tissue RAR (first named, α)” value (RAR α [5]; day 1) was 3.4 fold. The “upregulation of lung tissue RAR (first named, α)” value (RAR α [5]; day 17) was 4.2 fold, the “effect of inhaled 13-cis RA on liver RARs” value (liver RARs; 5 to 240 minutes daily for 14 days) was “not responsive” and the “effect of inhaled 13-cis RA on liver RARs” value (liver RARs; same rats as FIG. 2A (experiment A)) was “failed to show any increase”.
